Patent publication US6608111B1, “Method for treating or preventing prostatic conditions” (Southern Illinois University Office of Research, …, priority 1998, dated 2003)
Entries after “also recorded” stand apart in the source; their conditions may differ.

Assays:
[1] = system: male and female Sprague-Dawley rats; experiment: Experiment 1: chronic treatment of male and female rats, 4 weeks; type: in vivo, rat; details: mean ± SEM; for Food intake: 2.5 ug/g of body weight daily injection; for Food intake / Food intake (g): n = 5
Method: Twenty-five male and 25 female Sprague-Dawley rats, 9-10 weeks of age, were randomly assigned to groups of five animals, respectively, as a control group (no treatment) (C), for treatment with vehicle only (V), estradiol (E), (±)-Z-BDDA, or (+)-Z-BDDA. Each animal in group V received a daily 0.1 cc injection of a 10% ethanol-90% olive oil solution; the other treatments received their respective compound as a daily 0.1 cc injection, e.g., 2.5 μg of compound/g of body weight, in a 10% ethanol-90% olive oil solution. A temperature of 21° C. and an artificial 12-h light-dark cycle was maintained in the animal room. All animals were maintained on standard chow in powdered form for four weeks, then sacrificed after an overnight fast under i.p. pentobarbital anesthesia (50 mg/kg). Animal weight and food intake were measured weekly during the study, and the subsequent food-efficiency ratio [FER(g of weight change/g of food intake)] was determined. During sacrifice, blood was collected (via cardiac puncture) for cholesterol measurements. Immediately following sacrifice the fat pads and reproductive organs were removed and weighed.
(§1) Experiments 1 and 2 employed a randomized design. All data were analyzed by one-way analysis of variance (ANOVA,)and post-hoc comparisons were made with Tukey pairwise comparisons test. Significance was confirmed at p≦0.05 (SYSTAT 7.0, SPSS INC., 1997), and all values are reported as means±standard error of the mean.

[2] = system: male and female Wistar rats; experiment: Experiment 2: chronic treatment of male and female rats, 5-6 weeks; type: in vivo, rat; details: for Food intake: n = 5; for testosterone: compared to the vehicle
Method: Twenty-five male and 25 female Wistar rats, 7-8 weeks of age, were randomly assigned to groups of five animals, respectively, for treatment with vehicle only (V), estradiol (E), (±)-Z-BDDA, (+)-Z-BDDA, or (−)-Z-BDDA. Each animal in group V received a daily 0.1 cc injection of a 10% ethanol-90% olive oil solution; the other treatments received their respective compound as a daily 0.1 cc injection, e.g., 2.5 μg of compound/g of body weight, in a 10% ethanol-90% olive oil solution. A temperature of 21° C. and an artificial 12-h light-dark cycle were maintained in the animal room. All animals were maintained on standard chow in powdered form, the males for five weeks and the females for six weeks, then sacrificed after an overnight fast under i.p. pentobarbital anesthesia (50 mg/kg). Animal weight and food intake were measured weekly during the study and subsequent FER values were determined. During sacrifice, blood was collected (via cardiac puncture) for glucose, luteinizing hormone, prolactin and testosterone measurements. The amounts of luteinizing hormone, prolactin and testosterone were measured to help elucidate the target tissue of the respective compounds in male and female rats. Immediately following sacrifice the fat pads and reproductive organs were removed and weighed.
as §1

[3] = system: male Sprague-Dawley rats; experiment: Example 4: effects on prostate and testis of male rats, 6 weeks; type: in vivo, rat; details: for testis histology: Leydig cells / testis histology: spermatogenesis: FIGS. 5a-f; for Prostate Weight as % Body Weight / Seminal Vesicle Weight as % Body Weight / Testis Weight as % Body Weight / Body Weight (g): 0.1 ug/g of body weight once a day, mean ± SEM; for Body Weight (g): n = 10
Method: Sixty male Sprague-Dawley rats, 7-8 weeks of age, were randomly assigned to groups of ten animals. Each group was randomly assigned to one of six treatments: Vehicle control (C), Estradiol-17β(E), (−)-Z-BDDA, (+)-Z-BDDA, (−)-HAA, and (+)-HAA. The compounds were all administered at a dose of 0.1 μg/g of body weight in 0.1 cc once a day for 6 weeks. The estrogenic compounds were dissolved in 10% ethanol and 90% olive oil vehicle. A temperature of 21° C. and an artificial 12 h light-dark cycle were maintained in the animal room. All animals were maintained on standard chow in powdered form for six weeks, and then sacrificed after an overnight fast under i.p. pentobarbitol anesthesia (50 mg/kg). Animal weight was measured weekly during the study. During sacrifice, blood was collected via cardiac puncture. Immediately following sacrifice, the fat pads, livers, pituitaries, testes, seminal vesicles, and prostate were removed and weighed, and snap frozen in liquid nitrogen. Prostates and one testis from 2-3 animals in each treatment group were fixed in 10% formalin for histological examination. These tissues were fixed overnight, blocked in paraffin, sectioned at 4 μm, stained with Hematoxylin and Eodsin, cover slipped, and examined microscopically. Quantitative results were subjected to an analysis of variance and means separated by a Tukey's Test (SYSTAT, Chicago, Ill.).

[4] = system: dialyzed LDL; experiment: Oxidized LDL lag time assay (antioxidant capacity); set-up: species or system human; details: 3 μM Cu2SO4, drugs at 10^−4, 10^−5, 10^−6, and 10^−7 M
Method: Experiments were carried out on dialyzed LDL collected from four fasted persons. The LDL was used within 10 days of dialysis. The oxidizing agent was 3 μM […]; phosphate buffered saline was used to control pH, and all drugs were dissolved in ethanol; final concentrations of each drug in the assays were 10^−4, 10^−5, 10^−6, and 10^−7 M. The combined results are shown in FIG. 6.

[5] = female rats (uterus), 2.5 ug/g of body weight daily
[6] = female rats, 2.5 ug/g of body weight daily, g of weight change/g of food intake
[7] = female rats, 2.5 ug/g of body weight daily
[8] = male rats (testis), 2.5 ug/g of body weight daily
[9] = male rats, 2.5 ug/g of body weight daily
[10] = female rats (uterus), 2.5 ug/g of body weight daily, six weeks, mean ± SEM
[11] = female rats, 2.5 ug/g of body weight daily, six weeks, mean ± SEM
[12] = male rats (testis), 2.5 ug/g of body weight daily, five weeks, mean ± SEM
[13] = male rats, 2.5 ug/g of body weight daily, five weeks, mean ± SEM

SMILES | Food intake ([1]; female rats) | FER (food efficiency ratio) [1, 6] | Cholesterol (mg/dl) [1, 7] | Visceral fat (g) [1, 7] | Uterus/testis weight (g) [1, 8] | Cholesterol (mg/dl) [1, 9] | FER (food efficiency ratio) [1, 9] | Prostate weight (g) [1, 9] | Visceral fat (g) [1, 9] | Food intake (g) [1, 9] | Uterus/testis weight (g) [2, 10] | Blood glucose [2, 11] | FER (food efficiency ratio) [2, 11] | Food intake [2, 11] | Uterus/testis weight (g) [2, 12] | testosterone ([2]; male rats, 2.5 μg/g daily) | FER (food efficiency ratio) [2, 13] | Food intake [2, 13] | testis histology: Leydig cells ([3]; 0.1 μg/g daily) | testis histology: spermatogenesis ([3]; 0.1 μg/g daily) | further results
C[C@]12CCC3c4ccc(O)cc4CCC3[C@@H]1CCC2O (single isomer, unassigned; (+)) [estradiol, (+)-17β-estradiol, reference compound] | 371.6 ± 17.8 g | 0.035 ± 0.011 | 44.9 ± 15.8^1 mg/dl | 0.8 ± 0.1^1 g | 0.94 ± 0.13^1,2 g | 51.5 ± 9.5^1,2 mg/dl | −0.057 ± 0.012^1,2 | 0.09 ± 0.01^1,2 g | 4.2 ± 0.4^2 g | 298.2 ± 18.8^1 g | 4.83 ± 1.30^1 g | 100.80 ± 10.22 mg/dL | 0.039 ± 0.004 | 699.6 ± 33.7 g | 0.74 ± 0.04^1 g | significant (p<0.05) testosterone suppression | 0.00 ± 0.01^1 | 590.4 ± 47.7 g | small | halted at round (Golgi phase) spermatids | Uterus/testis weight [1, 5]: 1.58 ± 0.15 g; Blood glucose [2, 13]: 108.00 ± 10.90 mg/dL; Prostate weight [2, 13]: 0.06 ± 0.02 g; body weight (percent weight change) ([2]; male rats, both experiments (FIGS. 2 and 3), 2.5 μg/g daily): dramatic reduction in body weight; Prostate Weight as % Body Weight [3]: 0.05 ± 0.00^1 % Body Weight; Seminal Vesicle Weight as % Body Weight [3]: 0.02 ± 0.00^1 % Body Weight; Testis Weight as % Body Weight [3]: 0.49 ± 0.13^1,4 % Body Weight; Body Weight (g) [3]: 207.2 ± 4.6^1 g; antioxidant activity (shift in lag time of LDL oxidation) [4]: very little antioxidant activity
CC[C@H]1c2ccc3cc(O)ccc3c2CC[C@@]1(C)C(=O)O [(+)-Z-BDDA, (+)-Z-bisdehydrodoisynolic acid] | 315.2 ± 18.4 g | 0.045 ± 0.017^4 | 35.1 ± 8.6^1 mg/dl | 2.1 ± 0.3^1,3 g | 0.84 ± 0.06^1,2 g | 24.6 ± 2.2^1,2,3 mg/dl | −0.174 ± 0.027^1,2,3,4 | 0.13 ± 0.04^1,2,3 g | 5.1 ± 0.2^2 g | 326.0 ± 9.5^1 g | 4.02 ± 0.91^1 g | 89.60 ± 6.15 mg/dL | 0.026 ± 0.008^1 | 693.6 ± 72.3 g | 0.61 ± 0.02^1 g | significant (p<0.05) testosterone suppression | −0.02 ± 0.01^1 | 676.0 ± 33.2 g | normal | normal | Uterus/testis weight (g) [1, 5]: 2.57 ± 0.79^1,2 g; Blood glucose (mg/dl) [2, 13]: 94.00 ± 10.18^1 mg/dl; Prostate weight (g) [2, 13]: 0.02 ± 0.00^1 g; prostate histology (alveoli) ([3]; 0.1 μg/g daily, FIGS. 4a-f): normal alveoli; also recorded: tubules and alveoli being slightly smaller; gross testes weights unadjusted for bodyweight ([3]; 0.1 μg/g daily, data not shown): lighter (P<0.05) than those in control rats; Prostate Weight as % Body Weight [3]: 0.05 ± 0.01^1 % Body Weight; Seminal Vesicle Weight as % Body Weight [3]: 0.23 ± 0.12^2 % Body Weight; Testis Weight as % Body Weight [3]: 0.98 ± 0.15 % Body Weight; Body Weight (g) [3]: 234.8 ± 10.1^1,2 g; antioxidant activity (shift in lag time of LDL oxidation) [4]: significant antioxidant activity
